Measured values from PubChem BioAssay (NCI).
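Step 1: Grow cells in 96-well plates. Step 2: Expose to compound for 48 hours at 5 concentrations. Step 3: Interpolate endpoints linearly; if unreached, use highest concentration. The concentration for 50% growth inhibition is given as GI50. TGI: concentration producing complete growth inhibition.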

What was measured:
Assay in all cases: inhibition of tumour cell growth, NCI panel, 48 h
NCI-H460 lung = system: NCI-H460 lung
SNB-19 CNS = system: SNB-19 CNS
SN12C renal = system: SN12C renal
IGROV1 ovarian = system: IGROV1 ovarian
HT29 colon = system: HT29 colon
NCI-H226 lung = system: NCI-H226 lung
SR leukemia = system: SR leukemia
A549 NSCLC = system: A549 NSCLC
UACC-62 melanoma = system: UACC-62 melanoma
HOP-92 NSCLC = system: HOP-92 NSCLC
MOLT-4 leukemia = system: MOLT-4 leukemia
TK-10 renal = system: TK-10 renal
UACC-257 melanoma = system: UACC-257 melanoma
NCI/ADR-RES ovarian = system: NCI/ADR-RES ovarian
HS 578T breast = system: HS 578T breast
DU-145 prostate = system: DU-145 prostate
PC-3 prostate = system: PC-3 prostate
NCI-H522 lung = system: NCI-H522 lung
MDA-MB-435 = system: MDA-MB-435
K-562 leukemia = system: K-562 leukemia
SK-MEL-28 melanoma = system: SK-MEL-28 melanoma
HCT-116 colon = system: HCT-116 colon
EKVX NSCLC = system: EKVX NSCLC
M14 melanoma = system: M14 melanoma
HCT-15 colon = system: HCT-15 colon
RXF 393 renal = system: RXF 393 renal
OVCAR-4 ovarian = system: OVCAR-4 ovarian
SK-OV-3 ovarian = system: SK-OV-3 ovarian
BT-549 breast = system: BT-549 breast
CAKI-1 renal = system: CAKI-1 renal
NCI-H23 lung = system: NCI-H23 lung
SK-MEL-2 melanoma = system: SK-MEL-2 melanoma
OVCAR-3 ovarian = system: OVCAR-3 ovarian
LOX IMVI melanoma = system: LOX IMVI melanoma
MCF7 breast = system: MCF7 breast
SK-MEL-5 melanoma = system: SK-MEL-5 melanoma
HOP-62 NSCLC = system: HOP-62 NSCLC
OVCAR-8 ovarian = system: OVCAR-8 ovarian
KM12 colon = system: KM12 colon
SF-268 CNS = system: SF-268 CNS
SW-620 colon = system: SW-620 colon
COLO 205 colon = system: COLO 205 colon
MALME-3M melanoma = system: MALME-3M melanoma
UO-31 renal = system: UO-31 renal
HL-60(TB) leukemia = system: HL-60(TB) leukemia
HCC-2998 colon = system: HCC-2998 colon
786-0 renal = system: 786-0 renal
MDA-MB-231 breast = system: MDA-MB-231 breast
U251 CNS = system: U251 CNS
A498 renal = system: A498 renal
SF-295 CNS = system: SF-295 CNS
SNB-75 CNS = system: SNB-75 CNS
T-47D breast = system: T-47D breast
OVCAR-5 ovarian = system: OVCAR-5 ovarian
RPMI-8226 leukemia = system: RPMI-8226 leukemia
ACHN renal = system: ACHN renal
SF-539 CNS = system: SF-539 CNS
CCRF-CEM leukemia = system: CCRF-CEM leukemia

O=C(NC(=S)Nc1ccccn1)c1ccccc1
GI50 (NCI-H460 lung): > 100 µM
TGI (NCI-H460 lung): > 100 µM
GI50 (SNB-19 CNS): > 100 µM
TGI (SNB-19 CNS): > 100 µM
GI50 (SN12C renal): > 100 µM
TGI (SN12C renal): > 100 µM
GI50 (IGROV1 ovarian): 61.7 µM
TGI (IGROV1 ovarian): > 100 µM
GI50 (HT29 colon): > 100 µM
TGI (HT29 colon): > 100 µM
GI50 (NCI-H226 lung): > 100 µM
TGI (NCI-H226 lung): > 100 µM
GI50 (SR leukemia): > 100 µM
TGI (SR leukemia): > 100 µM
GI50 (A549 NSCLC): > 100 µM
TGI (A549 NSCLC): > 100 µM
GI50 (UACC-62 melanoma): > 100 µM
TGI (UACC-62 melanoma): > 100 µM
GI50 (HOP-92 NSCLC): 83.9 µM
TGI (HOP-92 NSCLC): > 100 µM
GI50 (MOLT-4 leukemia): > 100 µM
TGI (MOLT-4 leukemia): > 100 µM
GI50 (TK-10 renal): > 100 µM
TGI (TK-10 renal): > 100 µM
GI50 (UACC-257 melanoma): > 100 µM
TGI (UACC-257 melanoma): > 100 µM
GI50 (NCI/ADR-RES ovarian): > 100 µM
TGI (NCI/ADR-RES ovarian): > 100 µM
GI50 (HS 578T breast): 71.5 µM
TGI (HS 578T breast): > 100 µM
GI50 (DU-145 prostate): > 100 µM
TGI (DU-145 prostate): > 100 µM
GI50 (PC-3 prostate): > 100 µM
TGI (PC-3 prostate): > 100 µM
GI50 (NCI-H522 lung): > 100 µM
TGI (NCI-H522 lung): > 100 µM
GI50 (MDA-MB-435): > 100 µM
TGI (MDA-MB-435): > 100 µM
GI50 (K-562 leukemia): > 100 µM
TGI (K-562 leukemia): > 100 µM
GI50 (SK-MEL-28 melanoma): > 100 µM
TGI (SK-MEL-28 melanoma): > 100 µM
GI50 (HCT-116 colon): > 100 µM
TGI (HCT-116 colon): > 100 µM
GI50 (EKVX NSCLC): 85.2 µM
TGI (EKVX NSCLC): > 100 µM
GI50 (M14 melanoma): > 100 µM
TGI (M14 melanoma): > 100 µM
GI50 (HCT-15 colon): 70.7 µM
TGI (HCT-15 colon): > 100 µM
GI50 (RXF 393 renal): > 100 µM
TGI (RXF 393 renal): > 100 µM
GI50 (OVCAR-4 ovarian): 24.4 µM
TGI (OVCAR-4 ovarian): > 100 µM
GI50 (SK-OV-3 ovarian): > 100 µM
TGI (SK-OV-3 ovarian): > 100 µM
GI50 (BT-549 breast): > 100 µM
TGI (BT-549 breast): > 100 µM
GI50 (CAKI-1 renal): > 100 µM
TGI (CAKI-1 renal): > 100 µM
GI50 (NCI-H23 lung): > 100 µM
TGI (NCI-H23 lung): > 100 µM
GI50 (SK-MEL-2 melanoma): > 100 µM
TGI (SK-MEL-2 melanoma): > 100 µM
GI50 (OVCAR-3 ovarian): 93.4 µM
TGI (OVCAR-3 ovarian): > 100 µM
GI50 (LOX IMVI melanoma): > 100 µM
TGI (LOX IMVI melanoma): > 100 µM
GI50 (MCF7 breast): 1.97 µM
TGI (MCF7 breast): > 100 µM
GI50 (SK-MEL-5 melanoma): > 100 µM
TGI (SK-MEL-5 melanoma): > 100 µM
GI50 (HOP-62 NSCLC): > 100 µM
TGI (HOP-62 NSCLC): > 100 µM
GI50 (OVCAR-8 ovarian): > 100 µM
TGI (OVCAR-8 ovarian): > 100 µM
GI50 (KM12 colon): > 100 µM
TGI (KM12 colon): > 100 µM
GI50 (SF-268 CNS): > 100 µM
TGI (SF-268 CNS): > 100 µM
GI50 (SW-620 colon): > 100 µM
TGI (SW-620 colon): > 100 µM
GI50 (COLO 205 colon): > 100 µM
TGI (COLO 205 colon): > 100 µM
GI50 (MALME-3M melanoma): > 100 µM
TGI (MALME-3M melanoma): > 100 µM
GI50 (UO-31 renal): 39.2 µM
TGI (UO-31 renal): > 100 µM
GI50 (HL-60(TB) leukemia): > 100 µM
TGI (HL-60(TB) leukemia): > 100 µM
GI50 (HCC-2998 colon): > 100 µM
TGI (HCC-2998 colon): > 100 µM
GI50 (786-0 renal): > 100 µM
TGI (786-0 renal): > 100 µM
GI50 (MDA-MB-231 breast): > 100 µM
TGI (MDA-MB-231 breast): > 100 µM
GI50 (U251 CNS): > 100 µM
TGI (U251 CNS): > 100 µM
GI50 (A498 renal): 50.8 µM
TGI (A498 renal): > 100 µM
GI50 (SF-295 CNS): > 100 µM
TGI (SF-295 CNS): > 100 µM
GI50 (SNB-75 CNS): > 100 µM
TGI (SNB-75 CNS): > 100 µM
GI50 (T-47D breast): 5.98 µM
TGI (T-47D breast): > 100 µM
GI50 (OVCAR-5 ovarian): > 100 µM
TGI (OVCAR-5 ovarian): > 100 µM
GI50 (RPMI-8226 leukemia): > 100 µM
TGI (RPMI-8226 leukemia): > 100 µM
GI50 (ACHN renal): > 100 µM
TGI (ACHN renal): > 100 µM
GI50 (SF-539 CNS): > 100 µM
TGI (SF-539 CNS): > 100 µM
GI50 (CCRF-CEM leukemia): > 100 µM
TGI (CCRF-CEM leukemia): > 100 µM
